Measured values from US20150342893A1 (SIGMOID PHARMA LIMITED, priority 2014, published 2015).

Experiments:
[1] = Precipitation of drug during minibead manufacture (surfactant phase in contact with gelatin phase); assay type: physicochemical; conditions: inhibitor added to celecoxib minibead formulation
Method: Minibeads containing celecoxib were prepared via a manual drop in oil method. The minibeads were manufactured by combining the surfactant phase (drug dissolved in vehicles) with a gelatin phase (mixture of gelatin, water, sorbitol and SDS) and mixing at approximately 60° C. Droplets of the mixture were then allowed to fall into a bath of cooling/hardening oil (Miglyol® 810N) at approximately 10° C. As the mixture droplets fall in air, coacervation occurs to form a coacervate suspension in which droplets of the surfactant phase are surrounded by a layer of gelatine (multiple coacervates exist within a single minibead). The dropping of the minibead into a cooling/hardening bath allows the minibeads to harden before being recovered for drying. […] A range of oils was investigated (olive oil, mineral oil and other medium chain triglycerides) for use as the cooling/hardening oil in the production of minibeads. […] The minibeads were then air dried for 24 hr (over this time the water in the formulation evaporated). In some of the formulations other components were added to the gelatin phase to prevent precipitation of drug during manufacturing and also to help maintain the minibead structure.
Similar formulations were produced in which the drug loading was increased to 9-10% w/w, however precipitation was evident for these formulations on contact of the surfactant phase with the gelatin phase. […]

[2] = cited from earlier work
[3] = Solubilisation measurements of celecoxib in vehicles (oils, surfactants, co-solvents); assay type: physicochemical
Method: Solubilisation studies were performed using a wide range of vehicles consisting of oils, surfactants and co-solvents. The vehicles used were Kolliphor® HS 15, Transcutol® P, Kolliphor® EL, Miglyol® 810N, Tween® 20 and Capryol® 90.
Celecoxib was added to measured quantities of the vehicles (excipients) in glass vials. These mixtures were stirred at room temperature on a magnetic stirrer; as an exception, the solubilisation measurements were performed at elevated temperatures in respect of vehicles which were solid at room temperature.

[4] = tested on: HT29 cells; assay: Annexin V-PE / 7-AAD cell viability and apoptosis assay by flow cytometry; assay type: cell-based, human
Method: HT29 is a COX-2 positive human colorectal adenocarcinoma cell line and is in particular a model for adenocarcinoma, especially COX-2 positive adenocarcinoma. The HT29 cell line was grown in McCoy's 5A modified medium supplemented with 1.5 mM L-glutamine, 10% FBS (fetal bovine serum) and 1% penicillin/streptomycin. The cells were grown in a humidified atmosphere containing 5% CO2.
Two control groups were employed, one which involved no treatment (referred to as media) and the other which involved treatment with DMSO alone. Cell viability and the onset of apoptosis was monitored using an Annexin-PE Apoptosis Detection Kit which contains recombinant Annexin V-fluorochrome phycoerythrin (PE) conjugate and the vital dye 7-amino-actinomycin (7-AAD) followed by flow cytometry on a FACSCalibur system using CellQest software (BD Biosciences, USA) . Data for at least 10,000 cells were collected for each analysis made and two-dimensional plots of 7-AAD versus PE were generated.

[5] = tested on: HT29 cells; assay: MTT cell proliferation assay; assay type: cell-based; conditions: Homo sapiens, HT-29, 72 hrs, tested at 20, 30, 50 and 100 μM, read-out: IC50 dose (dose required to reduce cell proliferation by 50% compared to medium)
Method: HT29 is a COX-2 positive human colorectal adenocarcinoma cell line and is in particular a model for adenocarcinoma, especially COX-2 positive adenocarcinoma. […] The cells were grown in a humidified atmosphere containing 5% CO2. Cell proliferation was measured using the VybrantMTT assay kit according to the manufacturer's guidelines. HT29 cells (10,000 cells) cells were plated in 100 μl of complete McCoy's 5A media in 96-well tissue culture dishes. […] In the case of celecoxib dissolved in DMSO, the celecoxib was dissolved overnight in DMSO before treatment. Two control groups were employed, one which involved no treatment (referred to as media) and the other which involved treatment with DMSO alone. […] The absorbance (A) was determined in a BioRad 680 microplate reader (BioRad, USA) at 550 nm.

[6] = at 20° C.; cited from earlier work

| SMILES | Effect (potential precipitation inhibitor) [1] | Log P [2] | solubility of celecoxib in Capryol 90 ([3]; vehicle Capryol 90, range between transparent and cloudy) | solubility of celecoxib in 2-(2-ethoxyethoxy)ethanol (Transcutol P) ([3]; vehicle Transcutol P) | maximum solubility of celecoxib in ethanol ([3]; vehicle ethanol) | % of cells that died by necrosis ([4]; 50 μM, 72 h) | combined % of cells that died via apoptosis (late and early apoptosis) ([4]; 50 μM, 72 h) | viability at 50 µM ([4]; Homo sapiens, HT-29, 72 h, n=6, read-out: % viable cells) | IC50 [5] | aqueous solubility [6] |
| --- | --- | --- | --- | --- | --- | --- | --- | --- | --- | --- |
| CC(=O)Oc1c(C)c(C)c2c(c1C)CCC(C)(CCC[C@H](C)CCC[C@H](C)CCCC(C)C)O2 (stereo partly shown) [Vitamin E Acetate, vitamin E acetate] | Effective precipitation inhibitor but negative | – | – | – | – | – | – | – | – | – |
| Cc1ccc(-c2cc(C(F)(F)F)nn2-c2ccc(S(N)(=O)=O)cc2)cc1 [Celecoxib, celecoxib] | – | 3.5 | 58 to 64 mg/g | 345 to 390 mg/g | 100 to 125 mg/g | 13.96±2.48% | 17.02±1.63% | 69 ± 2.71% | > 100 µM | 3 to 7 µg/mL |
